From patent publication US20190075796A1, “Increased walnut yields with brassinosteroid application” (priority 2017, published 2019)

Legend:
walnut cv. Serr = test: Foliar spray field trial in a walnut orchard, cv. Serr: fruit set and nut weights; format: in vivo; details: all treatments of HBR except HBR 0.4 ppm
Protocol: (§1) Testing was conducted in two contiguous walnut orchards located in Pirque, Metropolitan Region of Chile. The first orchard is of cultivar Serr, planted at 11×11 m and 20 years old. The second orchard is of cultivar Chandler, planted at 7×6 m and 5 years old. In the 2014/2015 season yield of cultivar Serr was 4,300 kilograms of walnuts in shells per hectare, and in cultivar Chandler the yield was 2,300 kilograms of walnuts in shells per hectare.
During the 2014/2015 season, four experimental and one control treatments were applied to the Pirque orchard. Treatments were foliar sprays with solutions of Homobrassinolide (HBR) at 0.4, 4.0 and 20 ppm, and HBR 4.0 ppm+CPPU 10 ppm. Control was water. Treatment of each cultivar took place 10 days after said cultivar reached approximately 10% pistillate flower receptive. Each tree was sprayed with approximately 250 ml of solution. At that volume the sprayed leaves and branches are wetted and excess solution is dripping off the tree. Applications were made to small branches having 2 to 4 terminal buds with pistillate flowers, equivalent to 3 to 12 potential fruits per replication. The experimental design was randomized blocks with 10 replications. […]
The measurement of fruit set was determined by the difference between the number of fruit harvested and the number of flowers/fruitlets sprayed in late flowering. […]

walnut cv. Chandler = test: Foliar spray field trial in a walnut orchard, cv. Chandler: fruit set and nut weights; format: in vivo
Protocol: as §1
During the 2014/2015 season, four experimental and one control treatments were applied to the Pirque orchard. Treatments were foliar sprays with solutions of Homobrassinolide (HBR) at 0.4, 4.0 and 20 ppm, and HBR 4.0 ppm+CPPU 10 ppm. Control was water. Treatment of each cultivar took place 10 days after said cultivar reached approximately 10% pistillate flower receptive. Each tree was sprayed with approximately 250 ml of solution. At that volume the sprayed leaves and branches are wetted and excess solution is dripping off the tree. Applications were made to small branches having 2 to 4 terminal buds with pistillate flowers, equivalent to 3 to 12 potential fruits per replication. The experimental design was randomized blocks with 10 replications. Ten trees per cultivar received treatment and all treatments were applied to separate spray targets of each tree. The spray targets included pistillate flowers, catkins and leaves.
Walnut flowering of both cultivars in the season was prolonged and irregular, extending for 2 weeks in each cultivar. Bloom was mainly protandrous with catkins fall of 20-30% during the pistillate flowering period for both cultivars. The vegetative growth was normal. When flowering of cv. Serr reached 10 to 20% of receptivity, Aminoethoxy vinyl-glycine was applied at a concentration of 125 ppm to all conditions to delay ripening.
The measurement of fruit set was determined by the difference between the number of fruit harvested and the number of flowers/fruitlets sprayed in late flowering. After harvest, the nuts from the experiment were dried in laboratory at a temperature of 35° C. for 12 hours, and then the nut shell was removed, measuring the weight of both (in shell and shelled) independently.

pollen of cv. Chandler = test: In vitro pollen germination and pollen tube growth; format: cell-based, walnut; details: 20° C.
Protocol: An in vitro experiment was done to study the effects of the same treatments as Study 1 on pollen of cv. Chandler. The growing media used for pollen germination and tube growth was prepared in Petri dishes, and consisted of a solution of 10% sucrose and 1% agar in 50 mg per liter boric acid, plus either 0.4 ppm HBR, 4.0 ppm HBR, 20 ppm HBR, or 4.0 ppm HBR+10 pm CPPU. The control solution was distilled water. The experimental design was randomized with 4 replications, using Petri dishes as experimental units. Chandler pollen was sown onto the media with a fine brush, and incubated in a growth chamber for 24 hours at 20° C. Observations of pollen germination were done after 12 hours and pollen tube growth after 24 hours respectively. An Olympus CX31 microscope at 40× was used, and photographs were taken with a ProgRes® C3 camera, using the Capture-Pro computational program. The percentage of germination was determined using the GSA Image Analyzer 3.6.5 program, and the pollen tube length with the Qcad program. FIG. 11 is a representative 20× photomicrograph of germinating Chandler pollen.

Compound: CC[C@@H](C(C)C)C(O)C(O)[C@@H](C)[C@H]1CC[C@H]2[C@@H]3COC(=O)[C@H]4C[C@H](O)[C@H](O)C[C@]4(C)[C@H]3CC[C@]12C (stereo in doubt) [HBR, homobrassinolide]
- final weight of shelled walnuts versus control (walnut cv. Serr): greater than control
- fruit set, increase with respect to the control (walnut cv. Chandler; HBR 0.4 ppm): 6.2%
- final weight of walnuts in shell, increase over control (walnut cv. Chandler; HBR 4.0 ppm): 16.9%
- fruit set, increase with respect to the control (walnut cv. Chandler; HBR 4.0 ppm): 5.0%
- final weight of walnuts in shell, increase over control (walnut cv. Chandler; HBR 20 ppm): 29.6%
- fruit set, increase with respect to the control (walnut cv. Chandler; HBR 20 ppm): 13.5%
- pollen germination versus control (pollen of cv. Chandler; 0.4 ppm HBR in medium, observed after 12 hours): less than control
- pollen germination versus control (pollen of cv. Chandler; 4.0 ppm HBR in medium, observed after 12 hours): similar
- pollen tube growth versus control (pollen of cv. Chandler; 4.0 ppm HBR in medium, observed after 24 hours): greater than control
- pollen germination (pollen of cv. Chandler; 20 ppm HBR in medium, observed after 12 hours): no germination
